Test results taken from paper PMC3877906, “Polypeptide Modulators of TRPV1 Produce Analgesia without Hyperthermia” (Marine Drugs, 2013).
“Also recorded” adds a separate entry of the source.

What was measured:
[1] = test system: CD-1 mice; assay: hot plate test; format: in vivo, mouse
Procedure: The hot plate test is a most simple for TRPV1 inhibitor characterization since TRPV1 play significant role in temperature sensation. Effect of APHC1 and APHC3 on thermal nociception at dose 0.1 mg/kg after intramuscular, intraperitoneal and intravenous administration was measured before. […] Here we assessed changes in thermal nociception to a noxious thermal stimuli elicited by different doses of APHC1 and APHC3 to determine minimal effective dose. […] Both polypeptides reached maximal effect at 0.1 mg/kg.
(§1) All experiments were performed in accordance with the recommendations in the “Principles of Laboratory Animal Care” and after approval by the Animal Care and Use Committee of the Branch of the IBCh RAS (Pushchino, Russia). Adult male CD-1 mice (Animal Breeding Facility Branch of Shemyakin-Ovchinnikov Institute of Bioorganic Chemistry, Russian Academy of Sciences, Pushchino, Russia) weighing 20–25 g were used. Animals were allowed to acclimate in the laboratory for at least five days. Mice were housed at room temperature (23 ± 2 °C) on a 12 h light–dark cycle with food and water available ad libitum. Polypeptides or vehicle was administered intravenously 15 min before testing.
(§2) The significance of the data was determined by analysis of variance (ANOVA) followed by Tukey’s test. Data are presented as mean ± S.E.
Sensitivity to a thermal stimulus was determined by hind paw withdrawal or licking latency using a Hot-Plate Analgesia Meter (Columbus Instruments, Columbus, OH, USA) at 55 °C.

[2] = test system: CD-1 mice; assay: acetic acid-induced writhing (abdominal constriction test of visceral pain); format: in vivo, mouse
Procedure: TRPV1 can be activated by low pH stimuli and is therefore involved in pain caused by acidification, which can be measured in the pain behavior model of acetic acid-induced writhing. Intraperitoneal administration of acetic acid provokes a very stereotyped behavior in the mouse. The constriction response is considered the definitive measure of visceral pain intensity. Animals were pretreated with polypeptides 15 min before acetic acid injection.
as §1, §2
Separate groups of mice were injected with 0.6% acetic acid in saline (10 mL∙kg^−1 intraperitoneally (i.p.)). Mice were immediately placed inside transparent glass cylinders, and the number of writhes was recorded for 15 min.

[3] = test system: TRPV1; assay: low pH-induced TRPV1 receptor currents/activation; format: cell-based; conditions: pH 5.5
From the text: The residues responsible for APHC’s activity are not determined. […] These differences in pharmacology were expressed further in the in vivo results.

[4] = test system: TRPA1; assay: TRPA1 activity, oocyte electrophysiology or agonist-induced fluorescence readout; format: cell-based; conditions: concentrations of up to 2 μM; data not shown
From the text: The formalin test is a complex in vivo model of pain where TRPV1’s function is more integrative than perceptive. In the mouse, intraplantar injections of formalin produce a biphasic behavioral reaction. The molecular mechanisms underlying formalin-induced pain are based on tissue damage, non-specific activation of nociceptors and direct activation of TRPA1 receptors (measured in phase I) that drive the local neurogenic inflammation and CNS sensitization (measured in phase 2). APHC1 and APHC3 were tested on TRPA1 for inhibitory/activation effects.

[5] = test system: p2X3; assay: p2X3 activity, oocyte electrophysiology or agonist-induced fluorescence readout; format: cell-based; conditions: concentrations of up to 2 μM; data not shown
[6] = test system: CD-1 mice; assay: open-field locomotor activity test; format: in vivo, mouse; conditions: 0.1 mg/kg i.v.; vs saline; n = 9 per group; 3 min recording
From the text: We conducted multiple in vivo experiments to assess the biological effects of APHC1 and APHC3, acting via modulation of TRPV1, on temperature sensation and inflammation. Possible negative effects of investigated components on the central nervous system were first excluded. We evaluated APHC1/3 in open-field locomotor activity tests as compounds capable of reducing locomotor activity could misrepresent results of other behavioral tests (particularly in pain models). […] There was no significant effect detected for either polypeptide at a dose of 0.1 mg/kg i.v. (Figure 3a).
All experiments were performed in accordance with the recommendations in the “Principles of Laboratory Animal Care” and after approval by the Animal Care and Use Committee of the Branch of the IBCh RAS (Pushchino, Russia). Adult male CD-1 mice (Animal Breeding Facility Branch of Shemyakin-Ovchinnikov Institute of Bioorganic Chemistry, Russian Academy of Sciences, Pushchino, Russia) weighing 20–25 g were used. […]
The significance of the data was determined by analysis of variance (ANOVA) followed by Tukey’s test. […]
Open-field activity was measured using a system that counts interruptions in a set of photo beams (OPTO—VARIMEX (Columbus Instruments, Columbus, OH, USA) and ATM3 Auto System using Auto-Track Version 4.2 software). Spontaneous locomotor activity was recorded for 3 min.

[7] = i.v., 15 min before test, 55 °C, n = 9 per group, vs saline
[8] = 0.1 mg/kg i.v., n = 9, vs saline

Row | Substance | paw withdrawal latency, hot plate [1, 7] | dose at which maximal effect is reached, hot plate ([1]; i.v., 55 °C, n = 9) [mg/kg] | number of writhes, in words [2, 8] | inhibition of number of writhes ([2]; 0.1 and 0.5 mg/kg i.v. 15 min before 0.6% acetic acid i.p., n = 9) [%] | effect on low pH-induced TRPV1 activation, in words [3] | agonistic/antagonistic activity at TRPA1 [4] | agonistic/antagonistic activity at p2X3 [5] | travelled distance and rearing, open-field locomotor activity [6] | paw withdrawal latency, hot plate ([1]; 0.001 mg/kg i.v., data not shown) | antinociception in hot plate test ([1]; 0.01 mg/kg i.v., 55 °C, n = 9) | number of writhes, in words ([2]; 0.5 mg/kg i.v.)
1 | APHC3: polypeptide from Heteractis crispa highly homologous to APHC1, differing in four of 56 amino acids; produced recombinantly in E. coli (GSICLEPKVVGPCTAYFPRFYFNSETGKCTPFIYGGCEGNGNNFETLRACRGICRA; left off: TRX, end not stated, cleaved) | Dose dependent inhibition of thermal nociception; also recorded: significantly increased paw withdrawal latency | 0.1 | significantly reduced the number of writhes | 50 | inhibited acid-induced (pH 5.5) activation of the receptor | neither agonistic nor antagonistic activity | neither agonistic nor antagonistic activity | did not significantly alter normal mouse behavior |  |  | 
2 | APHC1: polypeptide modulator of TRPV1 from sea anemone Heteractis crispa; homologous to BPTI/Kunitz type serine-protease inhibitors; produced recombinantly in E. coli (GSICLEPKVVGPCTAYFRRFYFDSETGKCTVFIYGGCEGNGNNFETLRACRAICRA; left off: TRX, end not stated, cleaved) | Dose dependent inhibition of thermal nociception; also recorded: significantly increased paw withdrawal latency | 0.1 | did not produce a statistically significant effect; also recorded: did not significantly inhibit the response to acetic acid |  | unable to observe any effect | neither agonistic nor antagonistic activity | neither agonistic nor antagonistic activity | did not significantly alter normal mouse behavior | did not prolong paw withdrawal latency | produced antinociception | significantly reduced number of writhes
